Here are results for 1 molecule from patent publication US20040063696A1, “1,1-dioxo-2h-1,2-benzothiazine-3-carboxamide derivatives,method for preparing same and pharmaceutical compositions comprising same” (priority 2000, published 2004).

The experiment deals with aggrecan. Description: Expression of aggrecan in articular chondrocytes treated with IL-1 (Northern blot). Format: cell-based. The note with it: calf articular chondrocytes, compared with cultures treated with 10 ng/ml of IL-1. The method, then:
The expression of aggrecan was analysed by Northern blot. Total RNA of cultures of calf articular chondrocytes (CAC) cultured in DMEM+10% FCS and treated with different concentrations of the test compounds, in the presence of IL-1 (10 ng/ml), were extracted, 10 μg of the total RNA were fractionated by electrophoresis on a 1% agarose gel in the presence of an MOPS-formaldehyde buffer, transferred to a nylon membrane and hybridised with a specific aggrecan cDNA probe.

Consider `CC[N+](C)(CC)CCCNC(=O)C1=C(O)c2ccccc2S(=O)(=O)N1C.[I-]` [Example 1, {3-[(4-Hydroxy-2-methyl-1,1-dioxo-2H-1,2-benzothiazin-3-yl)-carbonylamino]propyl}diethylmethylammonium iodide], for which the “stimulation of the expression of aggrecan” value (10^−6 M) worked out at 150% and the “stimulation of the expression of aggrecan” value (10^−M (so in the source)) stood at 200%.
